Activity calls are given as the source filed them. The calls are words filed in the database; no cut-off is given here. Square brackets hold non-standard residues; d marks the D form. Peptide text beside a SMILES is read from it. * marks the point of attachment. 1Nal = N[C@@H](Cc1cccc2ccccc12)C(=O)O; Asu = N[C@@H](CCCCCC(=O)O)C(=O)O; β3hL = CC(C)C[C@H](N)CC(=O)O; Nva = CCC[C@H](N)C(=O)O; NHOH = ON*
What was measured:
Homo sapiens [1] = species on record: Homo sapiens; assay: Increase in SMN2 mRNA expression in induced pluripotent stem cell derived from human GM03813 cells isolated from SMA patient homozygous for deletion of exons 7 and 8 in SMN1 gene and containing 3 SMN2 gene copies at 0.1 uM by PCR assay relative to untreated control
Homo sapiens [2] = species on record: Homo sapiens; assay: Increase in SMN2 mRNA expression in induced pluripotent stem cell derived from human GM03813 cells isolated from SMA patient homozygous for deletion of exons 7 and 8 in SMN1 gene and containing 3 SMN2 gene copies at 1 uM by PCR assay relative to untreated control
Histone deacetylase 2 = Histone deacetylase 2 (Homo sapiens, UniProt Q92769); assay: Inhibition of HDAC2 (unknown origin)
Sequence of Histone deacetylase 2 (Q92769 whole entry): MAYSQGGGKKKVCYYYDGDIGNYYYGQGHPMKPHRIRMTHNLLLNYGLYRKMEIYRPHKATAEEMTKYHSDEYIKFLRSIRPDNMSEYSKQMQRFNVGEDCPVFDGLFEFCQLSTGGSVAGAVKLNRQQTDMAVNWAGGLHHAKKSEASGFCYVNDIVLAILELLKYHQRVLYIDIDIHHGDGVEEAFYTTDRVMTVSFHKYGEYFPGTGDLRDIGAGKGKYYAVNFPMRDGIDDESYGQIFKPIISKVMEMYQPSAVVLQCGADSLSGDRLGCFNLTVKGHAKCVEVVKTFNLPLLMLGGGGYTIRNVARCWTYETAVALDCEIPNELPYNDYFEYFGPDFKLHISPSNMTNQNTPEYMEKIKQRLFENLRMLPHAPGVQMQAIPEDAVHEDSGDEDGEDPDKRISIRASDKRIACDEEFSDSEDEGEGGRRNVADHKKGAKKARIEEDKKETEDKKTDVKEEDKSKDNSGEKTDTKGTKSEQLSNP

[3] = molecular target: T1, Protein deacetylase HDAC6 (Homo sapiens, UniProt Q9UBN7); assay: Inhibition of HDAC6 (unknown origin)
T1 sequence (Q9UBN7 whole entry): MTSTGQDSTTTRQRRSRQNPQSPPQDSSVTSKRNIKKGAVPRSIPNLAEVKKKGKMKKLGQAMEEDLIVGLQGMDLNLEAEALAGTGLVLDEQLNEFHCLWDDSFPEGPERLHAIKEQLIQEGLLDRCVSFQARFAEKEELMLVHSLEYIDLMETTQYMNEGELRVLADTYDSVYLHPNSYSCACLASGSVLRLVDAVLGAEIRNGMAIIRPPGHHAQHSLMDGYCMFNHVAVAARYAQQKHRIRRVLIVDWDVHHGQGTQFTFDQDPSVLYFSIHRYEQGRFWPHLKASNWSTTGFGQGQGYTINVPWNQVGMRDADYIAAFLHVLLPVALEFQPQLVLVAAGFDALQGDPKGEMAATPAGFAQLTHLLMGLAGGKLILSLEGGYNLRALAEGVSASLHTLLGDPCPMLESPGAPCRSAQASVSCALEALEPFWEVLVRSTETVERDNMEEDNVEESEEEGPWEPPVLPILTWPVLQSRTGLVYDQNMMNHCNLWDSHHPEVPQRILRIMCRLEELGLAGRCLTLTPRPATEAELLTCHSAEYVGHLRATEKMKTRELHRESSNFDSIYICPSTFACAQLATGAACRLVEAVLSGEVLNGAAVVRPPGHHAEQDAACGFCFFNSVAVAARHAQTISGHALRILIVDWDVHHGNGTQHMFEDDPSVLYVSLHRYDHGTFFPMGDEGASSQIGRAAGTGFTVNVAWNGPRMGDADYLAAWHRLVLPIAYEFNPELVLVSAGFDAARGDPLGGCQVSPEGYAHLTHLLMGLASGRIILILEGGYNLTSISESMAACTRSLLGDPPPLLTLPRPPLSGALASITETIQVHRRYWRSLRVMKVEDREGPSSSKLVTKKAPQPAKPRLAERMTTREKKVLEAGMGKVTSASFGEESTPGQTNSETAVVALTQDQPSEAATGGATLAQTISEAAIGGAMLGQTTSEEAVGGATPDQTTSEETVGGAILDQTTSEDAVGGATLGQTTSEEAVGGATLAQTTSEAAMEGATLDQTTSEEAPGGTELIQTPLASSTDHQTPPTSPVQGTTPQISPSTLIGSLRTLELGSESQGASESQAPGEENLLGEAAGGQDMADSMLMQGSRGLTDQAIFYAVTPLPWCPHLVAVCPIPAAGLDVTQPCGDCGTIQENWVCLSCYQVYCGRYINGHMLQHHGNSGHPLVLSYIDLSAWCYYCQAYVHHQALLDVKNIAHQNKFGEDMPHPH

Histone deacetylase 3 = Histone deacetylase 3 (Homo sapiens, UniProt O15379); assay: Inhibition of HDAC3 (unknown origin)
Sequence of Histone deacetylase 3 (O15379 whole entry): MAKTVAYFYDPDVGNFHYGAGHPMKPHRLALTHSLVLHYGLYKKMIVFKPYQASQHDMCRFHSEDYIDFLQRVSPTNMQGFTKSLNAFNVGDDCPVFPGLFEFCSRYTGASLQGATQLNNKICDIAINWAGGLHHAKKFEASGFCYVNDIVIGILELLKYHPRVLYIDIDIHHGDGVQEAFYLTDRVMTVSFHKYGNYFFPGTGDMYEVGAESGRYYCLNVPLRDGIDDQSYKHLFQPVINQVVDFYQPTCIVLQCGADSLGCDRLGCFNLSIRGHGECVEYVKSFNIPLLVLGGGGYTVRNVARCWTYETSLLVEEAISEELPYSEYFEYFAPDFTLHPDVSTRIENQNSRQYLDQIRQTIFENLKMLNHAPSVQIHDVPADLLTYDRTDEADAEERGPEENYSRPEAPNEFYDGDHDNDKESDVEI

[4] = Toxicity against induced pluripotent stem cell derived from human GM03813 cells isolated from SMA patient homozygous for deletion of exons 7 and 8 in SMN1 gene and containing 3 SMN2 gene copies assessed as reduction in SMN2 protein level at 10 uM; format: cell-based; conditions: induced pluripotent stem cell-derived neuron
Homo sapiens [5] = species on record: Homo sapiens; assay: Increase in […] in induced pluripotent stem cell derived from human GM03813 cells isolated from SMA patient homozygous for deletion of exons 7 and 8 in SMN1 gene and containing 3 SMN2 gene copies assessed as increase in SMN protein aggregates (Gems) at 5 uM incubated for 48 hrs by confocal microscopy
Homo sapiens [6] = species on record: Homo sapiens; assay: Increase in SMN2 mRNA expression in induced pluripotent stem cell derived from human GM03813 cells isolated from SMA patient homozygous for deletion of exons 7 and 8 in SMN1 gene and containing 3 SMN2 gene copies at 0.1 to 5 uM by PCR assay relative to untreated control
Histone deacetylase 8 = molecular target: T2, Histone deacetylase 8 (Homo sapiens, UniProt Q9BY41); assay: Inhibition of HDAC8 (unknown origin)
T2 sequence (Q9BY41 whole entry): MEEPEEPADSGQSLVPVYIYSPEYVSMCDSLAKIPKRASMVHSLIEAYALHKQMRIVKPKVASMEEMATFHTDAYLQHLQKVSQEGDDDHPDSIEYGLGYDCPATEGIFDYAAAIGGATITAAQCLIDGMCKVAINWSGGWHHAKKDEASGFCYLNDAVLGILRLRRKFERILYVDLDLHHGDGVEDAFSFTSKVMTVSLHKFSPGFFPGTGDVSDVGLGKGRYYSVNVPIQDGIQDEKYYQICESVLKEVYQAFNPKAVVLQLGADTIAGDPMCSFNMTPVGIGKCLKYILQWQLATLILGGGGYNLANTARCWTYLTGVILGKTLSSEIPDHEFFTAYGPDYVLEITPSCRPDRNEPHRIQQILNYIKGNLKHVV

Compound	fold change (FC) (Homo sapiens [1])	fold change (FC) (Homo sapiens [2])	IC50 (Histone deacetylase 2) [nM]	also measured
CC(C)C[C@H]1CC(=O)N[C@@H](C)C(=O)N[C@@H](CCCCCC(=O)O)C(=O)N[C@@H](Cc2cccc3ccccc23)C(=O)N1 (cyclo([Asu][1Nal][β3hL]A))	1.1 to 1.6	1.4 to 1.5	–	–
CCC(=O)CCCCC[C@@H]1NC(=O)[C@H](C)NC(=O)C[C@H](CC(C)C)NC(=O)[C@H](Cc2cccc3ccccc23)NC1=O	–	0.6 to 0.8	–	–
CC(C)C[C@H]1CC(=O)N[C@@H](C)C(=O)N[C@@H](CCCCCC(=O)C(F)(F)F)C(=O)N[C@@H](Cc2c[nH]c3ccccc23)C(=O)N1	1.2 to 1.3	2.1 to 2.4	32	IC50 [3]: 2800 nM
CC(C)C[C@H]1CC(=O)N[C@@H](Cc2ccccc2)C(=O)N[C@@H](CCCCCC(=O)NO)C(=O)N[C@@H](Cc2c[nH]c3ccccc23)C(=O)N1 (cyclo([Asu](NHOH)W[β3hL]F))	1 to 1.5	2.7 to 3.6	–	–
CCC[C@@H]1NC(=O)[C@H](C)NC(=O)C[C@H](CC(C)C)NC(=O)[C@H](Cc2c[nH]c3ccccc23)NC1=O (cyclo(A[Nva]W[β3hL]))	–	0.7 to 0.8	1580	IC50 (Histone deacetylase 3): 1440 nM
CC(C)C[C@H]1CC(=O)N[C@@H](C)C(=O)N[C@@H](CCCCCC(=O)NO)C(=O)N[C@@H](Cc2c[nH]c3ccccc23)C(=O)N1 (cyclo([Asu](NHOH)W[β3hL]A))	1.4 to 2.2	2 to 3	5	–
CC(C)C[C@H]1CC(=O)N[C@@H](CCCCN)C(=O)N[C@@H](CCCCCC(=O)O)C(=O)N[C@@H](Cc2cccc3ccccc23)C(=O)N1 (cyclo([Asu][1Nal][β3hL]K))	1	0.6 to 1.1	–	–
CCC(=O)CCCCC[C@@H]1NC(=O)[C@H](CCCCNC(C)=O)NC(=O)C[C@H](CC(C)C)NC(=O)[C@H](Cc2c[nH]c3ccccc23)NC1=O	1 to 1.5	2.7 to 3.2	–	Activity [4]: Toxic; IC50 [3]: > 10000 nM; Activity (Homo sapiens [5]): Active; Activity (Homo sapiens [6]): Dose-dependent effect
CCC(=O)CCCCC[C@@H]1NC(=O)[C@@H]2CCCN2C(=O)C[C@H](CC(C)C)NC(=O)[C@H](Cc2c[nH]c3ccccc23)NC1=O	1 to 1.4	1.2 to 2	40	IC50 (Histone deacetylase 8): 1500 nM
CCC[C@@H]1NC(=O)[C@H](C)NC(=O)C[C@H](CC(C)C)NC(=O)[C@H](Cc2cn(CN(C)C)c3ccccc23)NC1=O	–	1.5 to 1.8	–	–
CCC(=O)CCCCC[C@@H]1NC(=O)[C@@H](C)n2nncc2[C@H](CC(C)C)NC(=O)[C@H](Cc2c[nH]c3ccccc23)NC1=O	0.9	0.9 to 1.1	–	IC50 (Histone deacetylase 8): 110 nM
CCC(=O)CCCCC[C@@H]1NC(=O)[C@H](Cc2ccccc2)NC(=O)C[C@H](CC(C)C)NC(=O)[C@H](Cc2c[nH]c3ccccc23)NC1=O	0.6 to 1	0.8 to 1.4	–	–
